Entries after “also recorded” stand apart in the source; their conditions may differ.
Experiments:
Type in all cases: cell-based
Sp1 = target: T1, Sp1 (Homo sapiens, UniProt P08047); test: Sp1 DNA binding activity
T1 construct: endogenous in cells; host or cells: Jurkat (PGA1); cells of the 15dPGJ2 experiment not clearly stated

Oct1 = target: T2, Oct1 (Homo sapiens, UniProt P14859); test: Oct1 DNA binding activity
T2 construct: endogenous in cells; host or cells: Jurkat (PGA1); cells of the 15dPGJ2 experiment not clearly stated
T2 sequence (P14859 1-743): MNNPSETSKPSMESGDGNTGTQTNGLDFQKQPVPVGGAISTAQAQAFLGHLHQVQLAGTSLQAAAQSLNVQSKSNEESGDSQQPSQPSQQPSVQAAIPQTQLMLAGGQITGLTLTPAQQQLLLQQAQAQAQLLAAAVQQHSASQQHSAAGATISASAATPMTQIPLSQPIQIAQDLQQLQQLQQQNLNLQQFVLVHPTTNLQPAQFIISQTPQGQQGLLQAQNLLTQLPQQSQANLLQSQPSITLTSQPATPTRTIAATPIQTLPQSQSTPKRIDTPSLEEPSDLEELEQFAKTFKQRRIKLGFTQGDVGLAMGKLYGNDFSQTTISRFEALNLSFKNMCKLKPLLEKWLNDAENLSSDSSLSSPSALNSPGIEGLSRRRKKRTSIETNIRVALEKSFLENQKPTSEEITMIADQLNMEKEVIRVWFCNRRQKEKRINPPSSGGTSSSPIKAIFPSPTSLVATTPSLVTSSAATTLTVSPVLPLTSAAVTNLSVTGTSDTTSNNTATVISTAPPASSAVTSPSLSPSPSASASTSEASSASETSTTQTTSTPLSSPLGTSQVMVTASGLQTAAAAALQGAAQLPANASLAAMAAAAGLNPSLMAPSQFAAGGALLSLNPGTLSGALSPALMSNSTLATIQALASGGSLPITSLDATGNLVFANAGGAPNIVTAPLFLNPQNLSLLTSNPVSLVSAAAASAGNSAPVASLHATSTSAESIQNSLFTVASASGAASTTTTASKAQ

wild-type IKKβ = test: 2XNFκB-LUC reporter in HeLa cells with NIK and wild-type IKKβ; details: luciferase at 24 hours, FIG. 6E
Experimental: (§1) Recombinant IKKβ(C179A) was also resistant to concentrations of 15dPGJ2 that were inhibitory to wild-type IKKβ (as shown in FIG. 6D), and also to PGA1. An NF-κB dependent transcriptional reporter (2XNFκB-LUC) was preincubated with expression vector encoding either wild-type IKKβ or IKKβ(C179A). A NIK expression vector was included to ensure maximal IKK activation. […] FIG. 6E provides the results for HeLa cells transiently transfected with a 2×NF-κB-LUC reporter, a NIK expression vector and expression vectors for wild type IKKβ or IKKβ(C179A). At 3 hours post-transfection, cells were treated with 15dPGJ2 and at 24 hours, the luciferase activities were determined for duplicate samples. In each case, the maximal activity achieved in the absence of inhibitor was given an arbitrary value of 100% and the other values were calculated relative to this one.

IKKβ(C179A) = target: T3, IKKβ(C179A) (Homo sapiens, UniProt O14920, C179A); test: 2XNFκB-LUC reporter in HeLa cells with NIK and IKKβ(C179A); parameters: FLAG; made in house; details: luciferase at 24 hours, FIG. 6E
T3 sequence (O14920 1-756 C179A): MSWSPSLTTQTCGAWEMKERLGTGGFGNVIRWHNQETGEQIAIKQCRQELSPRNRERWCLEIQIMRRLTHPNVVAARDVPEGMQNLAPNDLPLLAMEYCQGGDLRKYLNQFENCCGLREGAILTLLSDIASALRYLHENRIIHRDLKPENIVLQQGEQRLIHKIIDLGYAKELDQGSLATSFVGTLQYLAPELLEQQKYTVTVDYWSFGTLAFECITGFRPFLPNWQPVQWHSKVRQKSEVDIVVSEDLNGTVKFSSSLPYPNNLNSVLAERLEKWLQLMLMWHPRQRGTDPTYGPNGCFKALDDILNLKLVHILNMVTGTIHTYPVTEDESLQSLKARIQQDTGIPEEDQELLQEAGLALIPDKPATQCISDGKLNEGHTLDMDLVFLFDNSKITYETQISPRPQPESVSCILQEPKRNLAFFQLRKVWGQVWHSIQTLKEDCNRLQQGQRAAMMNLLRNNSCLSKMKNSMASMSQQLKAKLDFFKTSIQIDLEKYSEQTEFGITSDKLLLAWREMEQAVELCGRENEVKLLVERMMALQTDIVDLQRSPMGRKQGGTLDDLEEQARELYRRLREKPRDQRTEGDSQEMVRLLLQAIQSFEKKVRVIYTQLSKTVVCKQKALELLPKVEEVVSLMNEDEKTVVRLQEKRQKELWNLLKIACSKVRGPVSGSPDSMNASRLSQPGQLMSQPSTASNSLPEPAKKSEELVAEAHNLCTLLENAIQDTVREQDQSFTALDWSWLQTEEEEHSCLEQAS
Experimental: as §1

T1 sequence (P08047 whole entry): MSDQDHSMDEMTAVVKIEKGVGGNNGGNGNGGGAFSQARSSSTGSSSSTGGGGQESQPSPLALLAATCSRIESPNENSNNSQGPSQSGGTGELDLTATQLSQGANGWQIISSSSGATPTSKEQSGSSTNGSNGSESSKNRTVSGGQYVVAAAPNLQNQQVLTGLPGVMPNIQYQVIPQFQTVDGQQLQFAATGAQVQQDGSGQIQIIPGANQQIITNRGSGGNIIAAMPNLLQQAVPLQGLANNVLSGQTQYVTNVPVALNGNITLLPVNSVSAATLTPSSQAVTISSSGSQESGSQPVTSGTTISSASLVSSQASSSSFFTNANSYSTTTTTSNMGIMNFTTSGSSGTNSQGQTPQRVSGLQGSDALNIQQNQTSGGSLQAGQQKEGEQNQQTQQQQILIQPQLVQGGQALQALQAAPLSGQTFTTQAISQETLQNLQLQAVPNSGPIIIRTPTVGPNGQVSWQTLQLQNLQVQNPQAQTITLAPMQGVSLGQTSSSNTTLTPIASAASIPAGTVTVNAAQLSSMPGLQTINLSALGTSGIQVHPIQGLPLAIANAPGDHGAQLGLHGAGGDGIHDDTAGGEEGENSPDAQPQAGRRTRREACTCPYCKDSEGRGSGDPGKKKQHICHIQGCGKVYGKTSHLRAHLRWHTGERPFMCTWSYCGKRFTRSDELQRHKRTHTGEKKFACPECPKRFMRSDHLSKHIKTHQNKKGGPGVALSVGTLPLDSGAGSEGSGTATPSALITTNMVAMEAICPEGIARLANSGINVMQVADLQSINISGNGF

Row | SMILES | effect on Sp1 DNA-binding activity (Sp1; 15dPGJ2, data not shown) | effect on Oct1 DNA-binding activity (Oct1; 15dPGJ2, data not shown) | sensitivity of NF-κB transcriptional activity through wild-type IKKβ (wild-type IKKβ) | sensitivity of NF-κB activation through IKKβ(C179A) (IKKβ(C179A)) | effect on Sp1 DNA binding (Sp1; PGA1 (120 μM), FIG. 1A) | effect on Oct1 DNA binding (Oct1; PGA1 (120 μM), FIG. 1A)
1 | CCCCC/C=C/C=C1/C(=O)C=C[C@@H]1C/C=C\CCCC(=O)O [15dPGJ2, 15-deoxy-Δ^12-14-PGJ2] | did not inhibit | did not inhibit | highly sensitive | insensitive | – | –
2 | CCCCC[C@H](O)/C=C/[C@H]1C=CC(=O)C1CCCCCCC(=O)O (stereo partly drawn) [PGA1, prostaglandin A1] | – | – | – | – | did not inhibit; also recorded: No effects | did not inhibit; also recorded: No effects
